Assay results as given in patent US10526316B2, “Quinoxaline and pyridopyrazine derivatives as PI3Kβ inhibitors” (Janssen Pharmaceutica NV, priority 2015, dated 2020).
Like-named read-outs stand apart in the source and are kept apart here.

What was measured:
[1] = molecular target: T1, PI3Kβ (Homo sapiens, UniProt P42338); assay: Enzyme binding assay (KINOMEscan, DiscoveRx); conditions: PIK3Cβ_h, read-out: Kd PIK3Cβ_h
T1 construct: purchased DiscoveRx Corporation, San Diego (contract service, KINOMEscan)
Procedure, shortened: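 KINOMEscan binding platform; read-out is the inhibitor binding constant Kd (nM).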

[2] = test system: Akt phosphorylated at Thr308 in PC-3 cells; assay: Cellular assay: phosphorylation of Akt at Thr308 in PC-3 cells (MSD ELISA); assay type: cell-based; conditions: PC-3 cells, 60 min compound incubation, MSD ELISA, read-out: IC50 pAkt_Thr308
Procedure, shortened: (§1)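 Phospho-Akt in whole-cell lysates is quantified by electrochemiluminescent immunoassay using phospho-site capture and total-Akt detection antibodies.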

[3] = test system: Akt phosphorylated at Ser473 in PC-3 cells; assay: Cellular assay: phosphorylation of Akt at Ser473 in PC-3 cells (MSD ELISA); assay type: cell-based; conditions: PC-3 cells, 60 min compound incubation, MSD ELISA, read-out: IC50 pAkt_S473
Procedure, shortened: as §1

[4] = molecular target: T2, kinase enzymes (Homo sapiens, UniProt P48736); assay: Enzyme binding assay (KINOMEscan, DiscoveRx), further kinases of Table A; conditions: PIK3Cγ_h
T2 construct: purchased DiscoveRx Corporation, San Diego (contract service, KINOMEscan)
Procedure, shortened: (§2)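 KINOMEscan readout; values are kinase binding affinities.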

[5] = molecular target: T3, kinase enzymes (Homo sapiens, UniProt P42345); assay: as above; conditions: MTOR_h
T3 construct: purchased DiscoveRx Corporation, San Diego (contract service, KINOMEscan)
Procedure, shortened: as §2

[6] = molecular target: T4, kinase enzymes (Homo sapiens, UniProt P42336); assay: as above; conditions: PIK3Cα_h
T4 construct: purchased DiscoveRx Corporation, San Diego (contract service, KINOMEscan)
Procedure, shortened: as §2

[7] = molecular target: T5, PI3Kδ (Homo sapiens, UniProt O00329); assay: Enzyme binding assay (KINOMEscan, DiscoveRx); conditions: PIK3Cδ_h
T5 construct: purchased DiscoveRx Corporation, San Diego (contract service, KINOMEscan)
T5 sequence (O00329 1-1044): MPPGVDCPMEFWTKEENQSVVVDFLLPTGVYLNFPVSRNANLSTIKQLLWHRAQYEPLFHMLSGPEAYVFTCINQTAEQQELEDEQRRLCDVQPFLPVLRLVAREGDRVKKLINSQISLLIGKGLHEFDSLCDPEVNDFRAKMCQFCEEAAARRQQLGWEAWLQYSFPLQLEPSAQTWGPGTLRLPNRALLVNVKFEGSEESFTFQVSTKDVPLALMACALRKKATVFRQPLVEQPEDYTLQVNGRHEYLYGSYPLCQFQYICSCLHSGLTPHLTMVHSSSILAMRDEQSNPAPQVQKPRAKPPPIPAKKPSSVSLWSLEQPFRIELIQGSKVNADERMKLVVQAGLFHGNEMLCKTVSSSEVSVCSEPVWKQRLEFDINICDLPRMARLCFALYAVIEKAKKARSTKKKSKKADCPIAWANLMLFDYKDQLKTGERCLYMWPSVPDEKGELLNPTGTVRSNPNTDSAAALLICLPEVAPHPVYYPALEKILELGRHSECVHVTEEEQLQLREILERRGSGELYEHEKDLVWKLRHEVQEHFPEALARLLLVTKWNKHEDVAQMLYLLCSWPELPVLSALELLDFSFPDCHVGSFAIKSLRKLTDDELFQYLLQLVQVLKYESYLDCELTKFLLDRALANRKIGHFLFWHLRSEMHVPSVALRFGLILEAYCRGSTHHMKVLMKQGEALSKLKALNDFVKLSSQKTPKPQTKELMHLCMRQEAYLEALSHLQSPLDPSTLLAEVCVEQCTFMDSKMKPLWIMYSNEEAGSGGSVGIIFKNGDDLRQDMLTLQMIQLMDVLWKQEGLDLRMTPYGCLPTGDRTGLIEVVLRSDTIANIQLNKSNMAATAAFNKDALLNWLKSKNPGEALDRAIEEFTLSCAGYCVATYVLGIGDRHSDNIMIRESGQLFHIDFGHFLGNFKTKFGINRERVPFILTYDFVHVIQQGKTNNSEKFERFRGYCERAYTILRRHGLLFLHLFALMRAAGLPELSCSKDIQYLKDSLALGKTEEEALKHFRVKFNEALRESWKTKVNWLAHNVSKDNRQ
Procedure, shortened: as §2

T4 sequence (P42336 whole entry): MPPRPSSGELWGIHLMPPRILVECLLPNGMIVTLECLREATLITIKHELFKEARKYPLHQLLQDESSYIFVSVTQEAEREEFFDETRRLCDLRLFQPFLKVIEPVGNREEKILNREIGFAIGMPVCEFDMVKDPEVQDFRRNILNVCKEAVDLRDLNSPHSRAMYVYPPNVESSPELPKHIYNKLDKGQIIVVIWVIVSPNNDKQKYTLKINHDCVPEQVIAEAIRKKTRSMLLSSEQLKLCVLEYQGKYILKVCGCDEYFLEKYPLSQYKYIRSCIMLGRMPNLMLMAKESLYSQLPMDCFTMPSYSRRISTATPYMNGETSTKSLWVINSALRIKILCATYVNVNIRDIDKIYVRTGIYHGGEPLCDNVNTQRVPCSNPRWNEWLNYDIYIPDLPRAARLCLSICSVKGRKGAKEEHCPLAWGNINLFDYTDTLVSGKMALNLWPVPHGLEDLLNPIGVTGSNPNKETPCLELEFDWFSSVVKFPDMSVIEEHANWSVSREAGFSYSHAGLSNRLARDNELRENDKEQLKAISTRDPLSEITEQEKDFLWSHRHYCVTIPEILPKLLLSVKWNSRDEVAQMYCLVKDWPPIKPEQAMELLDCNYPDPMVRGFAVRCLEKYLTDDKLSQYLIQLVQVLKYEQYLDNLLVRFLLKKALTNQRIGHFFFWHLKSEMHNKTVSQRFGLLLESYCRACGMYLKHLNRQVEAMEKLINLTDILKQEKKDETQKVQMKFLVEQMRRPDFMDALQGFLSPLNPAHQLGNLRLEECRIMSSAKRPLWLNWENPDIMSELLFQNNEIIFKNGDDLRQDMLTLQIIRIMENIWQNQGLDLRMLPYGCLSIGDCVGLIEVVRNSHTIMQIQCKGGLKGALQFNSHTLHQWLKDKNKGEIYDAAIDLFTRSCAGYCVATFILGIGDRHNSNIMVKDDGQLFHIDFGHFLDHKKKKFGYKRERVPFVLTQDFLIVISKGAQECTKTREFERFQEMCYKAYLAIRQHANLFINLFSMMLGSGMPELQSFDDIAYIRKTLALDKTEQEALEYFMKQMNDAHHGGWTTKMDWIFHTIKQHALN
T2 sequence (P48736 whole entry): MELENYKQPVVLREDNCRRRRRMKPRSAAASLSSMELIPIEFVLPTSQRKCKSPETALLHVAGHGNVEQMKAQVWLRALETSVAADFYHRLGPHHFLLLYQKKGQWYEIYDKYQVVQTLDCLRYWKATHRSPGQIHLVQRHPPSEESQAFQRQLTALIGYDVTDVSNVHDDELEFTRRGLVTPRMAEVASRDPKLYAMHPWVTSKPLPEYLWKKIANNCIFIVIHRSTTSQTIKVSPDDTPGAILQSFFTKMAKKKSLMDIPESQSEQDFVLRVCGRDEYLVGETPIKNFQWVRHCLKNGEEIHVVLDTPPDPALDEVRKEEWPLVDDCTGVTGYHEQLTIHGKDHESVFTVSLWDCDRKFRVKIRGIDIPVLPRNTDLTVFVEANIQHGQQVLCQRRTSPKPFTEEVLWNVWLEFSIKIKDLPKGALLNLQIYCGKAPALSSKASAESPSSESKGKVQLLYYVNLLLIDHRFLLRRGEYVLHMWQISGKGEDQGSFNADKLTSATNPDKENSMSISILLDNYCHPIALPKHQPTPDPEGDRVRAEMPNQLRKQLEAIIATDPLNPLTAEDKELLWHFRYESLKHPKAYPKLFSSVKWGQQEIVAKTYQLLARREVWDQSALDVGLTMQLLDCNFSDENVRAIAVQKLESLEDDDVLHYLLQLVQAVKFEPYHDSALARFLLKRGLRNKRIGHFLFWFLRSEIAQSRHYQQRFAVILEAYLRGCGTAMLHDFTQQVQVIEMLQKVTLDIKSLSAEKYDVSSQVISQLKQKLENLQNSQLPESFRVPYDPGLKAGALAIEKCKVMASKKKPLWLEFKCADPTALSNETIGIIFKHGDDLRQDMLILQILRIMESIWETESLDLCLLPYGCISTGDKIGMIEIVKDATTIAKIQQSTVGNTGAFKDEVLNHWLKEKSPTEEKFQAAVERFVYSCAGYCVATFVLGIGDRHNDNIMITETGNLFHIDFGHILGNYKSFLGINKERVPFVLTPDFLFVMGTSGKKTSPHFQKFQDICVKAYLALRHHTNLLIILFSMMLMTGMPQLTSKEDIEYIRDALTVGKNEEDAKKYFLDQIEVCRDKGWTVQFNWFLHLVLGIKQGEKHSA
T1 sequence (P42338 whole entry): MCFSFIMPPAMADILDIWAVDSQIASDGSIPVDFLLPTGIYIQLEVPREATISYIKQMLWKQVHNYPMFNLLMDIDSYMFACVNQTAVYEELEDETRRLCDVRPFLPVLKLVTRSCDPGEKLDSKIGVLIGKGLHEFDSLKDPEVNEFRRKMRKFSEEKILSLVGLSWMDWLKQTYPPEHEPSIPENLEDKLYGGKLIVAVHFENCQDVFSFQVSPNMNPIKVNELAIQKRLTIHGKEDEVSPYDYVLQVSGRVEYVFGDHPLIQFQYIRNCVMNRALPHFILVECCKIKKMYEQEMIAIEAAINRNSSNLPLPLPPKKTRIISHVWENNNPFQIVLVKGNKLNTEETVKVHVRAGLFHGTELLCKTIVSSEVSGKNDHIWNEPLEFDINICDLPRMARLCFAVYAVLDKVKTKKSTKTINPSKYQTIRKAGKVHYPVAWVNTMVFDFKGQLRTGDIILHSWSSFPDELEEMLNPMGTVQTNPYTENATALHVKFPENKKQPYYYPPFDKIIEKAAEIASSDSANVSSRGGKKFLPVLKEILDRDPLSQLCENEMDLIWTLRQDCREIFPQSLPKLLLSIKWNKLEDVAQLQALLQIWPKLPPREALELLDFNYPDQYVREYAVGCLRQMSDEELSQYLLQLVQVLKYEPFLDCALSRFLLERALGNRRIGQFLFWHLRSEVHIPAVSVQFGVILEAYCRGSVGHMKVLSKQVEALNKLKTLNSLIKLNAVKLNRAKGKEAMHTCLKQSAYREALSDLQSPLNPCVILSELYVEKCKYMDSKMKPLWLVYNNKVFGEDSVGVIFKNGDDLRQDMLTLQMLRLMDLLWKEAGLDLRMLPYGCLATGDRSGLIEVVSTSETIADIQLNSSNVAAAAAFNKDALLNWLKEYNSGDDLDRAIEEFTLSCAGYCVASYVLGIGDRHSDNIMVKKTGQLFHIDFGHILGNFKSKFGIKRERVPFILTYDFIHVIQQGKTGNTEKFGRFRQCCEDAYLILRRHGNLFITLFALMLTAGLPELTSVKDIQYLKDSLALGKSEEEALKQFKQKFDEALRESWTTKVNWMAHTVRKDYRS

Kd [1] [nM]	IC50 [2] [nM]	IC50 [3] [nM]	Kd [4] [nM]	Kd [5] [nM]	Kd [6] [nM]	Kd [7] [nM]	IC50 ([2]; Homo sapiens, PC-3, 1 h) [nM]	IC50 ([3]; Homo sapiens, PC-3, 1 h) [nM]	SMILES
18	245	398	17000	> 30200	7410	2040	–	–	CC(C)NCCNC(=O)c1cc(C(C)Oc2ccc(F)c(F)c2)c2nc(N3CCOCC3)cnc2c1 (racemic) [Compound 286]
1	26	35	6920	> 30200	2460	204	–	–	CC(C)NCCNC(=O)c1cc(C(C)Nc2ccc(F)c(F)c2)c2nc(N3CCOCC3)cnc2c1 (single isomer, unassigned) [Compound 364a]
1	–	–	8130	> 30200	1070	316	30	68	CC(Nc1cc(F)cc(F)c1)c1cc(C(=O)N2CC3(C2)CS(=O)(=O)C3)cc2ncc(N3CCOCC3)nc12 (stereo not drawn) [Compound 148]
141	> 513	> 513	3800	> 30200	7410	3470	–	–	CNCCNC(=O)c1cc(C(C)Nc2cc(F)cc(F)c2)c2nc(N3CCOCC3)cnc2c1 (single isomer, unassigned) [Compound 406b]
2	–	–	1590	15800	224	107	5	10	CC1CN(c2cnc3cc(C(=O)N(C)C)cc(C4CCCN4c4cc(F)cc(F)c4)c3n2)CCO1 (stereo not drawn) [Compound 36]
91	–	–	12600	16600	9330	2240	> 513	> 513	CNCCNC(=O)c1cc([C@H](C)Oc2cccc(F)c2)c2nc(N3CCOCC3)cnc2c1 [Compound 123]
42	–	–	26900	> 30200	6760	11700	> 513	> 513	CC(C)N1CCCN(C(=O)c2cc(NCc3cc(F)cc(F)c3)c3nc(N4CCOCC4)cnc3c2)CC1 [Compound 360]
102	417	> 513	> 30200	> 30200	13200	20000	–	–	CC(Nc1cc(F)cc(F)c1)c1cc(CN2CCS(=O)(=O)CC2)cc2ncc(N3CCOCC3)nc12 (single isomer, unassigned) [Compound 157]
0.1	8	9	1740	20000	1100	59	–	–	CC(Nc1cc(F)c(F)c(F)c1)c1cc(C(=O)NCCN(C)C)cc2ncc(N3CCOCC3)nc12 (single isomer, unassigned) [Compound 309a]
4	–	–	17000	> 30200	2690	513	85	71	CC(Nc1ccc(F)c(F)c1)c1cc(C(=O)N2CC[C@@H](O)C2)cc2ncc(N3CCOCC3)nc12 (stereo partly drawn) [Compound 300]
1	–	–	145	1910	66	71	> 513	> 513	CC(Nc1cc(F)cc(F)c1)c1cc(C(=O)NS(N)(=O)=O)cc2ncc(N3CCOCC3)nc12 (stereo not drawn) [Compound 243]
0.1	2	3	2150	30900	398	56	–	–	CNCCNC(=O)c1cc(C(C)Nc2cccc(F)c2)c2nc(N3CCOCC3)cnc2c1 (single isomer, unassigned) [Compound 138]
501	> 513	> 513	> 30200	> 30200	> 30200	7410	–	–	CN[C@H]1CCN(C(=O)c2cc(C(C)Oc3cc(F)c(F)c(F)c3)c3nc(N4CCOCC4)cnc3c2)C1 (single isomer, unassigned) [Compound 405a]
2	42	60	6920	24000	1380	170	–	–	CC(Nc1cc(F)cc(F)c1)c1cc(COCCO)cc2ncc(N3CCOCC3)nc12 (single isomer, unassigned) [Compound 177]
3	34	31	20900	> 30200	1740	234	–	–	CC(Nc1ccc(F)c(F)c1)c1cc(C(=O)N2CCN3CCC[C@H]3C2)cc2ncc(N3CCOCC3)nc12 (single isomer, unassigned) [Compound 287a]
26	204	200	15100	> 30200	17000	6310	–	–	CN[C@H]1CCN(C(=O)c2cc(C(C)Nc3cc(F)c(F)c(F)c3)c3nc(N4CCOCC4)cnc3c2)C1 (single isomer, unassigned) [Compound 297a]
7	–	–	> 30200	> 30200	5370	1410	~23	120	CN(C(=O)c1cc(NCc2cc(F)cc(F)c2)c2nc(N3CCOCC3)cnc2c1)[C@H]1CCNC1 [Compound 368]
3	–	–	21400	> 30200	2950	692	148	214	CC(Oc1cc(F)cc(F)c1)c1cc(C(=O)N(C)C)cc2ncc(N3CCOCC3)nc12 (stereo not drawn) [Compound 53]
4	–	–	6760	26900	813	3890	24	44	CC(Nc1cc(F)cc(F)c1)c1cc(C(=O)NC[C@H](C)O)cc2ncc(N3CCOCC3)nc12 (single isomer, unassigned) [Compound 246a]
1	~4	5	407	21900	39	18	–	–	C[C@@H]1CN(c2cnc3cc(C(=O)N(C)C)cc(C4CCCN4c4cccc(F)c4)c3n2)CCO1 (single isomer, unassigned) [Compound 30]
8	83	186	> 30200	> 30200	3470	1410	–	–	CC(Nc1cc(F)cc(F)c1)c1cc(CN2C[C@@H](C)O[C@@H](C)C2)cc2ncc(N3CCOCC3)nc12 (single isomer, unassigned) [Compound 208]
741	–	–	12600	20000	8320	4170	> 513	> 513	O=C(NCCO)c1cc(N2CCCC2c2cc(F)cc(F)c2)c2nc(N3CCOCC3)cnc2c1 (single isomer, unassigned) [Compound 244]
1	–	–	3470	> 30200	2000	102	15	16	CNCC1CCN(C(=O)c2cc(C(C)Nc3cc(F)cc(F)c3)c3nc(N4CCOCC4)cnc3c2)CC1 (stereo not drawn) [Compound 176]
1	2	4	372	> 30200	234	43	–	–	CC(O)c1cc(C2CCCN2c2cc(F)cc(F)c2)c2nc(N3CCOCC3)cnc2c1 (single isomer, unassigned) [Compound 15]
